Assay results from patent US9060988B2, “Method for treating pulmonary fibrosis using a pharmaceutical composition containing stanniocalcin 1 (STC1)” (Tohoku University, priority 2011, dated 2015).

Columns and labels:
[1] = test system: bleomycin pulmonary fibrosis model; test: Fibrillization suppressing effect in bleomycin pulmonary fibrosis model mouse (histopathologic staining of lung); assay type: in vivo, C57BL6/J mice; design: key to 8OHDG (extent of peroxides accumulation) / HE (fibrillization) / EM (fibrillization): −: not observed; +: mild; ++: moderate; +++: severe; conditions: for 8OHDG staining of lung tissue (amount of peroxides, FIG. 7) / fibrillization (HE and EM stained images, FIGS. 1 to 5): bleomycin model; for 8OHDG staining of lung tissue (amount of peroxides, FIG. 7): extent similar to that of the normal lung group; for fibrillization (HE and EM stained images, FIGS. 1 to 5) / response on progression of pulmonary fibrosis: intratracheal administration; for fibrillization (HE and EM stained images, FIGS. 1 to 5): versus saline control group in which fibrillization was induced; for response on progression of pulmonary fibrosis: bleomycin pulmonary fibrosis model; for 8OHDG (extent of peroxides accumulation) / EM (fibrillization) / HE (fibrillization): lung tissue, one week after intratracheal administration together with bleomycin, STC1 500 ng, NAC 3 mg; for 8OHDG (extent of peroxides accumulation): 8OHDG staining; for EM (fibrillization): Elastica-Masson staining; for HE (fibrillization): HE staining
Source text: The action of STC1 was investigated using a pulmonary fibrosis model utilizing the mitotic inhibitory action of an anticancer agent, bleomycin (Bleo), as the disease model mouse.
Human recombinant (r) STC1 was produced by BioVender, Inc. Specifically, human-derived STC1 gene added with a TAG structure was introduced into the 293 cells, and rSTC1 was separated using the TAG sequence.
Specifically, C57BL6/J mice (female, 10 weeks old), four animals in each group, were anesthetized by intraperitoneally administering an anesthetic agent (obtained by diluting 300 μg of ketamine hydrochloride and […] of xylazine in 100 μL of physiological saline). Thereafter, the cervix was cut open to expose a trachea, and the jacket of a 23G SURFLO needle was inserted into the trachea. Then, the following drugs were respectively administered intratracheally through the SURFLO jackets to the mice of each group.
(1) Saline control group: 50 μL of bleomycin-containing physiological saline (bleomycin concentration: 400 ng/mL)
(2) STC1-administered group: 500 ng of STC1+50 μL of bleomycin-containing physiological saline
(3) NAC-administered group (positive control): 3 mg of NAC+50 μL of bleomycin-containing physiological saline
(4) Normal lung group: 50 μL of physiological saline
After one week, the mice were euthanized by anesthetizing the mice as described above and then cutting the carotid artery, and subsequently, the lungs were removed. The extirpated lung tissues were subjected to histopathologic staining (HE (hematoxylin eosin) staining, EM (Elastica-Masson staining), and 8OHDG staining) by standard methods.

[2] = literature report; cited from earlier work

| Compound | 8OHDG staining of lung tissue (amount of peroxides, FIG. 7) [1] | fibrillization (HE and EM stained images, FIGS. 1 to 5) [1] | response on progression of pulmonary fibrosis [1] | 8OHDG (extent of peroxides accumulation) [1] | EM (fibrillization) [1] | HE (fibrillization) [1] | suppression of the immune system [2] |
| --- | --- | --- | --- | --- | --- | --- | --- |
| Stanniocalcin 1 [STC1] | poorly stained | fibrillization was suppressed | complete response | + | + | + | does not cause suppression of the immune system |
| CC(=O)N[C@@H](CS)C(=O)O [NAC, N-acetylcysteine, reference compound] | poorly stained | fibrillization was suppressed | amelioration | + | +~++ | +~++ |  |
